From patent publication EP4389746A2, “P2X3 RECEPTOR ANTAGONISTS” (Recordati Industria Chimica E Farmaceutica SPA, priority 2022, dated 2024) come the findings set out here.

One series concerns the target T1, human P2X3 receptor (Homo sapiens, UniProt P56373).
T1 construct: expressed in transfected cells; host or cells: CHO-K1
T1 sequence (P56373 1-397): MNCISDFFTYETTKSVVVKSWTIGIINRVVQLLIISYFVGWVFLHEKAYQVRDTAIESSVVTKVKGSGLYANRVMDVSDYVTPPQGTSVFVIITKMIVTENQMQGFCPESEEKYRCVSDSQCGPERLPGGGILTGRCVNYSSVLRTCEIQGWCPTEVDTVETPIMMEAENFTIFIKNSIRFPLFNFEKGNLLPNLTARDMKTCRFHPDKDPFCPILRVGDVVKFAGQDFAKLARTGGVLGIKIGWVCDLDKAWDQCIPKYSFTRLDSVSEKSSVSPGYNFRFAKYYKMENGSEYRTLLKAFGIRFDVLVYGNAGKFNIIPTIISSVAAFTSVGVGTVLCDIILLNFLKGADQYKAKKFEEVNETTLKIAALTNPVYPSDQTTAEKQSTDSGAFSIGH
Description: Calcium luminescence measurement: human P2X3 receptor activity inhibition (CHO-K1 cells, photoprotein readout, FLEXSTATION). It is filed as cell-based. Particulars: CHO-K1 cells co-expressing human P2X3 and Ca2+ sensitive photoprotein; agonist α,β-Met-ATP; read-out: h-P2X3 IC50.

The target of another series is T2, human P2X2/3 receptor (Homo sapiens, UniProt P56373+Q9UBL9).
T2 construct: expressed in transfected cells; host or cells: CHO-K1
T2 sequence (P56373 1-397): T1 sequence (P56373 1-397)
T2 sequence (Q9UBL9 1-471): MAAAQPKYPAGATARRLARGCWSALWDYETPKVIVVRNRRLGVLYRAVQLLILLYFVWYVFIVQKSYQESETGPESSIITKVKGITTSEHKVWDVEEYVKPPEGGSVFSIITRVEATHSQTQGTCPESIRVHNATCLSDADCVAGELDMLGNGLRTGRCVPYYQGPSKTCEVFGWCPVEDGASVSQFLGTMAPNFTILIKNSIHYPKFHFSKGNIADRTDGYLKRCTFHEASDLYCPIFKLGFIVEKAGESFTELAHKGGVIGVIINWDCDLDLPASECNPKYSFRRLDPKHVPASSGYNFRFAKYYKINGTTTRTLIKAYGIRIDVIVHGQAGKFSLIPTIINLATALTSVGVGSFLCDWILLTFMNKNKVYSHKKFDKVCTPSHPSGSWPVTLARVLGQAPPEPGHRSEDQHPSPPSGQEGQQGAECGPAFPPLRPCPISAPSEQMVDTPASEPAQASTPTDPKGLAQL
Description: Calcium fluorescence measurement: human P2X2/3 receptor activity inhibition (CHO-K1 cells, Fluo-8 NoWash, […]). It is filed as cell-based. The note with it: for IC50: CHO-K1 cells expressing human P2RX2/X3 channel, 10µM α,β-Met-ATP, read-out: h-P2X2/3 IC50; for Selectivity: ratio of IC50 of P2X2/3/ P2X3 receptors. As for the experimental part:
Determination of human P2X2/3 receptor activity inhibition
The assay for the human P2RX2/X3 has been evaluated by the screening instrumentation using the […] as reader and the FLUO8-NoWash dye as fluorescent readout for calcium detection.
CHO-K1 cells recombinantly expressing the human P2RX2/X3 channel are maintained in DMEM F-12 (1:1) mixture (LONZA cat. n°: BE04-687F/U1) supplemented with 5 mL of 100 mM Sodium Pyruvate (LONZA cat. n° BE13-115E), 25 mL of 7.5% Sodium Bicarbonate (LONZA cat. n° BE17-613E), 6.5 mL of 1M Hepes (LONZA cat. n° BE17-737E), 5 mL of 100X Penicillin/Streptomycin mixture (LONZA cat. n° DE17-602E) and 50 mL of Fetal Bovine Serum (Sigma cat. n° F7524), 5 µg/mL Puromycin dihydrochloride (Sigma cat. n° P9620) and 1 mg/ml G418 disulfate salt (Sigma cat. n° G8168).
Cells were seeded into black-walled clear bottom 384 Multiwell plates at a density of 10.000 cells/well in complete medium. After 24 h the culture medium was replaced with 20 µL/well of Fluo-8 NoWash calcium sensitive dye (AAT Bioquest cat. n° 36316) diluted in Tyrode's buffer (Standard Tyrode's buffer: in house solution, 130 mM NaCl, 5 mM KCl, 2 mM CaCl2, 5 mM NaHCO3, 1 mM MgCl2, 20 mM HEPES, pH 7.4).
The plates were incubated for 1 hours at 37°C and injected with 10 µL/well of test compounds at 3X concentration in Tyrode's buffer with the […]. After 5 minutes a second injection of 15 µL/well of 10µM α,β-Met-ATP in Tyrode's buffer (α,β-Met-ATP: from Tocris cat. n° 3209) was performed and the signal of the emitted fluorescence was recorded by […] (Molecular Devices).
The selectivity is expressed as the ratio of IC50 of P2X2/3/ P2X3 receptors. Table 8: Human P2X3 and h-P2X2/3 receptor antagonist activity for selected compounds of the invention.

Another series relates to C57BL/6J mice. As to the kind of experiment: Scratching model: inhibition of ATP induced pruritus in mouse. It is filed as in vivo. The note with it: dose inhibiting the 35% of number of bouts, intraperitoneally 30 min before α,β-meATP 200 µg/50 µL intradermal, bouts counted for 30 minutes. As for the experimental part:
(§1) C57BL/6J mice, Hartley Guinea pigs and Sprague-Dawley Rats from Charles River Italy were used in the experiments. Animals were housed with free access to food and water and maintained on a forced 12 hr light-dark cycle at 22-24°C for at least one week before the experiments were carried out. The animals were handled according to internationally accepted principles for care of laboratory animals (Directive 2010/63/EU of the European Parliament and of the Council of 22 September 2010).
"Scratchng model" - Inhibition of ATP induced pruritus in mouse
Mice were shaved at the rostral back the day before injection. The day of the experiment, an intradermal injection of the irritant agent α,β-meATP 200 µg/50 µL (Sigma, Italy) into the skin was performed. The hind limb scratching behavior directed toward the injection site, was recorded. One bout was defined as the lifting of the hindlimb toward the injection site and then placing the limb back on the floor. The number of bouts were counted for a period of 30 minutes. The Example 22 compound investigated was injected intraperitoneally 30 min before the administration of the irritant agent. (Fig. 2)
In the scratching model the results are presented as mean ± SEM of the values. Statistical analysis was performed using one-way ANOVA and Dunnet's test for multiple comparisons. The ED35 of the tested compounds was determined by linear regression analysis of bouts (Graphpad v5).

The next series relates to Sprague-Dawley Rats. As to the kind of experiment: Two bottle taste test in rats: dysgeusia effect of P2X3 antagonists. It is filed as in vivo. The note with it: rats water fasted overnight; bottles presented 30 minutes after treatment for 15 minutes (Fig. 4). The method, then: as §1
(Fig 3) "Two bottle taste test" in rats - Dysgeusia effect of P2X3 antagonists
Rats were water fasted overnight. The day of the experiment the animals were treated with tested compounds and 30 minutes later two bottles were presented for 15 minutes, the first one containing water and the second bottle containing Quinine, a substance showing a bitter taste. The volume of liquid drunk in 15 minutes from each bottle was recorded and expressed as percentage of preference (Fig.4). Statistical analysis was performed on absolute values (mean ± SEM) using one-way ANOVA and Tukey's test for multiple comparisons.

Turning to `CC(C)C1C(=O)N=C2c3nnc(N4CCOCC4)cc3N(Cc3ccc(Cl)cc3)C(=O)N21` (stereo not shown) [Example 28, 5-[(4-Chlorophenyl)methyl]-3-(morpholin-4-yl)-8-(propan-2-yl)imidazo[1',2':1,6]pyrimido[5,4-c]pyridazine-6,9(5H,8H)-dione], the values for the IC50 at human P2X3 receptor and at human P2X2/3 receptor were 16.6 nM and above 30000 nM, respectively. Besides, the Selectivity on human P2X2/3 receptor is above 1800. Also, in the series with C57BL/6J mice, the “ED35” value was 22.54 mg/kg.
For `CC(=O)N1CCN(c2cnc3c(c2)n(Cc2ccc(Cl)cc2)c(=O)n2c(C(C)(C)C)nnc32)CC1` [Example 34, 8-(4-Acetylpiperazin-1-yl)-3-tert-butyl-6-[(4-chlorophenyl)methyl]pyrido[2,3-e][1,2,4]triazolo[4,3-c]pyrimidin-5(6H)-one], the IC50 on human P2X3 receptor stood at 43 nM. Further, at human P2X2/3 receptor, the IC50 was above 30000 nM and the Selectivity is reported as above 697. Also, the “ED35” value in the series on C57BL/6J mice is 12.42 mg/kg.
For the compound `CC(C)(C)c1nnc2c3nnc(N4CCOCC4)cc3n(Cc3ccc(Cl)cc3)c(=O)n12` [Example 44, 3-tert-Butyl-6-[(4-chlorophenyl)methyl]-8-(morpholin-4-yl)[1,2,4]triazolo[4',3': 1,6]pyrimido[5,4-c]pyridazin-5(6H)-one], the results for the IC50 at human P2X3 receptor and at human P2X2/3 receptor were 6.73 nM and 3900 nM, respectively. For the same compound, at human P2X2/3 receptor, the Selectivity is on record as 582. Also, the “ED35” value in the series on C57BL/6J mice is on record as 9.06 mg/kg.
Take `COc1cc(C(C)C)c(Oc2cnc(N)nc2N)cc1S(N)(=O)=O` [Gefapixant, reference compound]: the “preference between water and Quinine” value with Sprague-Dawley Rats is “showed altered taste function and poor preference between water and Quinine bottles”.
